Laboratory results from patent US20170368082A1, “FORMULATIONS OF BRINCIDOFOVIR” (priority 2016, published 2017).
Where two headings read alike, the source gives them in different places.

Legend:
[1] = Comparison of toxicity of orally and intravenously administered brincidofovir (rat intestine); type: in vivo; conditions: for AUC / Cmax: rat, in vivo; for AUC: read-out: Exposure AUC; for Cmax: read-out: Exposure Cmax
Excerpt: As shown in the figures, IV administration of brincidofovir is more well-tolerated in the intestine.

[2] = Plasma BCV PK following single dose oral tablet administration (Table 105); type: in vivo; conditions: human; for AUC(0-inf) / Cmax: plasma, po
[3] = Sprague-Dawley CD, IV, repeat dose 1 mg/kg
[4] = Sprague-Dawley CD, IV, repeat dose 4 mg/kg
[5] = Sprague-Dawley CD, IV, repeat dose 15 mg/kg
[6] = 100 mg, 100 mg Oral Tablet, N = 52, geometric mean
[7] = 200 mg, 200 mg Oral Tablet, N = 15, geometric mean
[8] = 200 mg, 200 mg Oral Tablet, N = 63, geometric mean
[9] = 350 mg, 350 mg Oral Tablet, N = 70, geometric mean

With CCCCCCCCCCCCCCCCOCCCOP(=O)(O)CO[C@H](CO)Cn1ccc(N)nc1=O [Brincidofovir] the Intestinal finding ([1]; IV administration) was “minimal single-cell effects”, the “Preliminary Findings” value ([1]; IV, repeat dose 1 mg/kg) was “No GI findings” and the AUC [1, 3] was 410 ng·h/mL. The Cmax [1, 3] was 298 ng/mL, the AUC [1, 4] was 2760 ng·h/mL and the Cmax [1, 4] was 1200 ng/mL. For the same compound, the AUC [1, 5] was 9890 ng·h/mL, the Cmax [1, 5] was 4500 ng/mL and the Intestinal finding ([1]; oral administration) was “significant loss of epithelium in intestinal villi”. The mortality ([1]; oral, single dose 100 mg/kg) was 38% mortality, the mortality ([1]; oral, single dose 300 mg/kg) was 100% mortality and the AUC ([1]; oral, single dose 30 mg/kg) was 5560 ng·h/mL. The Cmax ([1]; oral, single dose 30 mg/kg) was 426 ng/mL, the AUC ([1]; oral, single dose 100 mg/kg) was 13600 ng·h/mL and the Cmax ([1]; oral, single dose 100 mg/kg) was 1090 ng/mL. The AUC ([1]; oral, single dose 300 mg/kg) was 20500 ng·h/mL, the Cmax ([1]; oral, single dose 300 mg/kg) was 1190 ng/mL and the AUC ([1]; oral, single dose 1000 mg/kg) was 26400 ng·h/mL. It also gave a Cmax ([1]; oral, single dose 1000 mg/kg) of 1380 ng/mL, a half-life ([2]; 100 mg Oral Tablet, N = 52, geometric mean) of 457 min and a half-life ([2]; 200 mg Oral Tablet, N = 15, geometric mean) of 720 min. The AUC(0-inf) [2, 6] was 1380 ng·h/mL, the Cmax [2, 6] was 258 ng/mL and the AUC(0-inf) [2, 7] was 3310 ng·h/mL. The Cmax [2, 7] was 622 ng/mL, the AUC(0-inf) [2, 8] was 3740 ng·h/mL and the Cmax [2, 8] was 802 ng/mL. The AUC(0-inf) [2, 9] was 6940 ng·h/mL and the Cmax [2, 9] was 1480 ng/mL.
